Converted amounts (≈) assume the structure as drawn.
Assays:
Type in all cases: cell-based
Mycoplasma gallisepticum = test: Antimicrobial test, conventional agar plate dilution method, Mycoplasma gallisepticum; details: Mycoplasmoides gallisepticum, read-out: Minimum Inhibitory Concentration, Mycoplasma gallisepticum
Text: (§1) ANTIMICROBIAL TEST AGAINST THREE STRAINS OF MYCOPLASMA
(§2) The test was effected by a conventional agar plate dilution method using the indicated strains of mycoplasma. The dithiocarbamic acid derivatives as shown below with Compound Nos. were employed in the test.

Mycoplasma pulmonis = test: Antimicrobial test, conventional agar plate dilution method, Mycoplasma pulmonis; details: Mycoplasma, read-out: Minimum Inhibitory Concentration, Mycoplasma pulmonis
Text: as §1, §2

Mycoplasma hyorhinis = test: Antimicrobial test, conventional agar plate dilution method, Mycoplasma hyorhinis; details: Mycoplasma, read-out: Minimum Inhibitory Concentration, Mycoplasma hyorhinis
Text: as §1, §2

Compound | MIC (Mycoplasma gallisepticum) [µg/mL] | MIC (Mycoplasma pulmonis) [µg/mL] | MIC (Mycoplasma hyorhinis) [µg/mL]
COc1cc(CSC(=S)N2CCCCC2)cc(OC)c1O [compound 229, 4-Hydroxy-3,5-dimethoxybenzyl 1-piperidinecarbodithioate] | 0.39 (≈ 1.19 µM) | 0.39 (≈ 1.19 µM) | 0.39 (≈ 1.19 µM)
Cc1cc(CSC(=S)N2CCCC2)cc(C)c1O [compound 187, 4-Hydroxy-3,5-dimethylbenzyl 1-pyrrolidinecarbodithioate] | 0.78 (≈ 2.77 µM) | 0.78 (≈ 2.77 µM) | 0.78 (≈ 2.77 µM)
CC(=O)C(CSC(=S)N(C)C)c1ccccc1 (stereo not drawn) [compound 164, 2-Acetyl-2-phenylethyl dimethyldithiocarbamate] | 0.1 (≈ 0.374 µM) | 0.1 (≈ 0.374 µM) | 0.1 (≈ 0.374 µM)
Cc1cc(C)c(O)c(CSC(=S)N(C)C)c1 [compound 197, 2-Hydroxy-3,5-dimethylbenzyl dimethyldithiocarbamate] | 0.39 (≈ 1.53 µM) | 0.39 (≈ 1.53 µM) | 0.2 (≈ 0.783 µM)
Cc1cc(CSC(=S)N2CCCCC2)cc(C(C)(C)C)c1O [compound 207, 4-Hydroxy-3-t-butyl-5-methylbenzyl 1-piperidinecarbodithioate] | 0.1 (≈ 0.296 µM) | 0.1 (≈ 0.296 µM) | 0.1 (≈ 0.296 µM)
O=c1cc(CO)oc(CSC(=S)N2CCCC2)c1O [compound 258, 5-Hydroxy-2-hydroxymethyl-4-oxo-4H-pyran-6-ylmethyl-1-pyrrolidinecarbodithioate] | 0.78 (≈ 2.59 µM) | 0.78 (≈ 2.59 µM) | 0.39 (≈ 1.29 µM)
O=C(CCSC(=S)N1CCCCC1)c1ccccc1 [compound 30, 2-Benzoylethyl 1-piperidinecarbodithioate] | 0.2 (≈ 0.682 µM) | 0.2 (≈ 0.682 µM) | 0.2 (≈ 0.682 µM)
CC(C)(C)c1cc(CSC(=S)N2CCOCC2)cc(C(C)(C)C)c1O [compound 219, 4-Hydroxy-3,5-di-t-butylbenzyl 4-morpholinecarbodithioate] | 0.2 (≈ 0.524 µM) | 0.2 (≈ 0.524 µM) | 0.1 (≈ 0.262 µM)
Cc1cc(CSC(=S)N2CCN(C)CC2)cc(C)c1O.Cl [compound 196, 4-Hydroxy-3,5-dimethylbenzyl 4-methyl-1-piperazinecarbodithioate hydrochloride] | 1.56 | 1.56 | 0.39
CN(C)C(=S)SCCC(=O)C=Cc1ccccc1 [compound 134, 2-Cinnamoylethyl dimethyldithiocarbamate] | 0.2 (≈ 0.716 µM) | 0.2 (≈ 0.716 µM) | 0.2 (≈ 0.716 µM)
CN(C)C(=S)SCc1oc(CO)cc(=O)c1O [compound 254, 5-Hydroxy-2-hydroxymethyl-4-oxo-4H-pyran-6-ylmethyl dimethyldithiocarbamate] | 0.39 (≈ 1.42 µM) | 0.39 (≈ 1.42 µM) | 0.39 (≈ 1.42 µM)
COc1cc(CSC(=S)N2CCOCC2)cc(OC)c1O [compound 230, 4-Hydroxy-3,5-dimethoxybenzyl 4-morpholinecarbodithioate] | 1.56 (≈ 4.74 µM) | 1.56 (≈ 4.74 µM) | 0.78 (≈ 2.37 µM)
Cc1cccc(C(=O)CCSC(=S)N(C)C)c1 [compound 56, 2-(m-Toluoyl)ethyl dimethyldithiocarbamate] | 0.1 (≈ 0.374 µM) | 0.1 (≈ 0.374 µM) | 0.05 (≈ 0.187 µM)
CC(=O)CCSC(=S)N1CCOCC1 [compound 91, 2-Acetylethyl 4-morpholinecarbodithioate] | 0.2 (≈ 0.857 µM) | 0.2 (≈ 0.857 µM) | 0.025 (≈ 0.107 µM)
CCN(CC)C(=S)SCc1cc(C)c(O)cc1C(C)C [Compound No. 202, 4-Hydroxy-2-isopropyl-5-methylbenzyl diethyldithyldithiocarbamate] | 0.1 (≈ 0.321 µM) | 0.1 (≈ 0.321 µM) | 0.1 (≈ 0.321 µM)
Oc1c(Cl)cc(CSC(=S)N2CCOCC2)cc1Cl [compound 235, 4-Hydroxy-3,5-dichlorobenzyl 4-morpholinecarbodithioate] | 1.56 (≈ 4.61 µM) | 1.56 (≈ 4.61 µM) | 1.56 (≈ 4.61 µM)
CCN(CC)C(=S)SCc1c(C)cc2c(c1O)C1OCC34CCCC(C)(C)C3CCC(C)(O2)C14 (stereo not drawn) [compound 266, 16-Diethylthiocarbamoylthiomethylsiccanin] | 0.1 (≈ 0.199 µM) | 0.1 (≈ 0.199 µM) | 0.1 (≈ 0.199 µM)

Source: patent publication US4076814A, “Preventive and curative compositions against mycoplasmosis” (Sankyo Company Limited, priority 1975, dated 1978)
